Experiments:
HaCaT keratinocytes [1] = test: AMP gene expression in keratinocytes grown as mono-layer (real time PCR, TaqMan array); type: cell-based, human; conditions: for induction of β-Defensin 3, calculated RQ-value: RQ >2 = relevant induction
Experimental: Effects of Lactobacillus Strains on AMP Gene Expression in Keratinocytes Grown as Mono-Layer
AMP inductions were measured with real time PCR analysis using Taq-Man® Array fast 96-well plates.
HaCaT keratinocytes were cultivated in EpiLife medium, cascade Biologics, Gibco, incl. HKGS, Gibco, life technologies. Test substances were diluted in equal medium and added in a volume of 2 mL per well on 6-well plates. All samples are tested on 100% confluent cells incubated at 37° C., 5% CO2. After 24 h incubation time all samples were removed and cells washed twice with Dulbecco's Phosphate Buffered Saline with Ca and Mg, Capricorn. RNA isolation was performed using RNeasy® Mini Kit, Qiagen. The procedure has been done as describes in the RNeasy Mini Handbook.
Cells were lysed and precipitated with ethanol, the homogenate was washed three times using the spin column and the mRNA was eluated with purified water. Depending on the sample the procedure was slightly adjusted.
RNA concentration was measured using μCuvetteG 1.0 and BioPhotometer, Eppendorf by measuring the absorption at 260 nm. Control values, like E260/280 or E260/230 were calculated simultaneously. Transcription was done with a minimum of 0.5-1 μg RNA per sample.
Reverse transcription was done using high capacity RNA-to-cDNA Kit, Applied Biosystems. The procedure was based on the provided protocol. All samples were incubated in a PCR Thermocycler, Biometra running 60 min at 37° C. for reverse transcription, followed by 5 min at 95° C. (enzyme inactivation) and holding temperature at 4° C. in reaction room.
Quantitative Real-Time PCR was done using StepOne Plus Fast Real Time PCR Instrument, Applied Biosystems. Initial steps of the RT-PCR included a first heating phase holding for 20 s at 95° C., followed by 40 cycles of cDNA denaturation for 3 s at 95° C. and annealing/elongation at 60° C. for 30 s.
Analysis was done by 2-ACT Method—in detail: • 1. Standardization of Ct values with reference-gen (HPRT) ΔCTvaluegene=CTvaluegene−CTvalueReferencegene (HPRT) • 2. Subtraction of ACT-value of control sample (untreated) and ACT-value (treated) ΔΔCTvaluegene=ΔCTvaluetreated−ΔCTvaluecontrol • 3. Calculation of RQ-Ratio (relative quantification-value) RQ−value=2^−ΔΔCT
A RQ-Value of >2 was defined as relevant induction of a gene.

HaCaT keratinocytes [2] = test: IL-8 release after IL-1alpha stimulation of pre-treated keratinocytes (ELISA); type: cell-based, human; conditions: 48 h pre-treatment, then 30 ng/mL IL-1alpha for 8 h
Experimental: Anti-Inflammatory Effects of Lactobacillus plantarum HEAL 19 and HEAL 99 HaCaT keratinocytes were cultivated in 96-well plates using RPMI-A, medium sterile filtered with L-Glutamine, Capricorn, supplemented with 10% fetal calf serum (FCS), Capricorn. The plates were incubated at 37° C. and 5% CO2. After 24 hours starvation with cell culture medium (RPMI, 1% FCS) the cells were washed once. The anti-inflammatory substances/inactivated bacteria suspensions were suspended in starvation medium, applied and incubated for 24/48 h with parameters described above. […] To remove bacterial cells after pre-incubation all wells were washed with cell culture medium three times. IL-1alpha, Gibco, life technologies was dissolved in H2Odest, diluted in starvation medium and pipetted to wells, preferably at a concentration of 30 ng/mL. Alternatively, a heat inactivated Staphylococcus aureus (DSM799) suspension was used as pro-inflammatory agent in a concentration of 0.1 mg/mL-1 mg/mL dry mass. After 8 h incubation the supernatants were separated. All samples were stored at −80° C. until further analyses. IL-8 concentrations were measured with Human CXCL8/IL-8, DuoSet ELISA, Development Systems, R&D Systems. The experimental procedure was performed as described in the provided protocol. After calculating means of the duplicate/triplicate values and subtraction of the average zero standard optical density the calculation was done using four parameter logistic curve-fit for creating standard curves.

[3] = tested on: HEPKp 3 dimensional skin models; test: Induction of hyaluronic acid in HEPKp 3D skin models (ELISA); type: cell-based, human; conditions: 0.005% in cell culture medium, 8 days treatment
Experimental: Induction of Hyaluronic Acid Human epidermal keratinocyte progenitors (HEPKp) generated 3d human skin models were cultivated and systemically treated with test substances. Briefly, defined concentrations of test substances were added to cell culture medium and each skin model was treated in cell culture dishes for up to 9 days at 37° C. and 5% CO2. After the treatment, collected supernatants were stored at −80° C. until further analyses. Viability of the cells was controlled by MTT standard method. Hyaluronic acid concentrations were measured by TECOmedical hyaluronic acid plus ELISA. The experimental procedure was performed as described in the provided protocol.

[4] = tested on: HEPKp 3 dimensional skin models; test: Filaggrin release from HEPKp 3D skin models (ELISA); type: cell-based, human; conditions: 0.05%, after 8 days, vs medium control
Source text: Induction of Moisturizing Factor Filaggrin in 3D Skin Models Three dimensional skin models derived from human epidermal keratinocyte progenitors (HEPKp) and were systemically treated with test substances in CnT-PR-3D medium for 4 to 9 days. The filaggrin release was detected in the media by ELISA, Enzyme-linked Immunosorbent Assay Kit for filaggrin, Cloud-Clone Corp.

HaCaT keratinocytes [5] = test: IL-8 release after S. aureus stimulation of pre-treated keratinocytes (ELISA); type: cell-based, human; conditions: 0.25 mg/mL, 48 h pre-treatment
Experimental: Anti-Inflammatory Effects of Lactobacillus plantarum HEAL 19 and HEAL 99 HaCaT keratinocytes were cultivated in 96-well plates using RPMI-A, medium sterile filtered with L-Glutamine, Capricorn, supplemented with 10% fetal calf serum (FCS), Capricorn. The plates were incubated at 37° C. and 5% CO2. After 24 hours starvation with cell culture medium (RPMI, 1% FCS) the cells were washed once. The anti-inflammatory substances/inactivated bacteria suspensions were suspended in starvation medium, applied and incubated for 24/48 h with parameters described above. Dexamethasone in a concentration of 10 μM was used as positive control. To remove bacterial cells after pre-incubation all wells were washed with cell culture medium three times. IL-1alpha, Gibco, life technologies was dissolved in H2Odest, diluted in starvation medium and pipetted to wells, preferably at a concentration of 30 ng/mL. Alternatively, a heat inactivated Staphylococcus aureus (DSM799) suspension was used as pro-inflammatory agent in a concentration of 0.1 mg/mL-1 mg/mL dry mass. After 8 h incubation the supernatants were separated. All samples were stored at −80° C. until further analyses. IL-8 concentrations were measured with Human CXCL8/IL-8, DuoSet ELISA, Development Systems, R&D Systems. The experimental procedure was performed as described in the provided protocol. […]

[6] = tested on: ex vivo human skin models; test: IL-8 release of ex vivo human skin models after diesel particulate 1650b; type: cell-based; conditions: topical cosmetic formulation containing L. plantarum HEAL 19, stimulation with diesel particulate (1650b)
Experimental: Ex Vivo Studies Ex vivo trials were done by Cutech Srl, Italy. Effects of described Lactobacillus strains on various parameters were analyzed in ex vivo skin models. Human skin from abdominal plastic surgery was used. Applications of heat inactivated bacteria suspensions were done systemically or topically, in formulation or solved in cell culture medium Tape stripping may be used. Concentrations and incubation times may vary. All data were processed in terms of mean, standard deviation and standard error of mean (SEM) for each treatment. Anti-Inflammatory Effects Above described ex vivo human skin models have been used to verify the anti-inflammatory potential of the L. plantarum strains. The models were treatment with a L. plantarum HEAL 19 cosmetic emulsion followed by the application of the external noxious agent and pollutant 1650b, simulating air pollution. At a selected endpoint, the organ cell culture medium has been withdrawn from wells and analyzed for IL-8 using Deluxe set Human IL-8 of Biolegend®, Inc.

[7] = tested on: S. aureus (DSM799/ATCC6538); test: Inhibition of Staphylococcus aureus growth (growth curves, OD 620 nm); type: cell-based; conditions: 0.1 and/or 0.05%, 16 h incubation
Experimental: Antimicrobial Effects of the Lactobacillus Strains Growth curves of various bacteria were measured photometrically at 620 nm. Inhibition of Staphylococcus aureus: 96-well MTP were prepared according to DIN58940-8 with autoclaved CASO medium (MERCK 1.05459) and test substances dissolved in DMSO or distilled water. The relevant wells were inoculated with S. aureus (DSM799/ATCC6538) using stock cultures maintained in 10% glycerin at −20° C. An inoculum of 1-6×10^6 cfu was added per well. Test substances were analyzed using three or four replicate wells during incubation at 37° C. for 16 hours. Growth curves were determined in each well via absorption at 620 nm using a Sunrise Photometer (Tecan, Austria) and Magellan Software. A concentration of 125 ppm farnesol and 4 ppm triclosan was used as positive control for growth inhibition, both pre-dissolved in DMSO (Merck 802912). For calculation, averages of detected absorptions were calculated and normalized with blank values. These OD values were plotted in function of time for graphical presentation.

[8] = tested on: ex vivo human skin models; test: Epidermal filaggrin, involucrin and cytokeratin 14 immunostaining ex vivo; type: cell-based; conditions: various concentrations, vs vehicle (DMSO)
Experimental: Ex Vivo Studies Ex vivo trials were done by Cutech Srl, Italy. Effects of described Lactobacillus strains on various parameters were analyzed in ex vivo skin models. Human skin from abdominal plastic surgery was used. Applications of heat inactivated bacteria suspensions were done systemically or topically, in formulation or solved in cell culture medium Tape stripping may be used. Concentrations and incubation times may vary. All data were processed in terms of mean, standard deviation and standard error of mean (SEM) for each treatment. Epidermal Filaggrin, Involucrin and Cytokeratin 14 For analyses, the models were immune-stained with the selected antibody filaggrin rabbit polyclonal [H-300], involucrin mouse monoclonal (SY5) and/or cytokeratin 14 (CK14) rabbit monoclonal (EPR17350). The amount of the antigen present in each slide was evaluated by estimating the intensity and the distribution of red dye within the epidermis. The obtained data were normalized for the length of the basal lamina.

ex vivo skin models = test: Skin barrier integrity (Rhodamine B) ex vivo after diesel particulate 1650b; type: cell-based, human; conditions: L. plantarum HEAL 19 formulation vs placebo, stimulation with diesel particulate (1650b)
Experimental: Ex vivo trials were done by Cutech Srl, Italy. Effects of described Lactobacillus strains on various parameters were analyzed in ex vivo skin models. Human skin from abdominal plastic surgery was used. Applications of heat inactivated bacteria suspensions were done systemically or topically, in formulation or solved in cell culture medium Tape stripping may be used. Concentrations and incubation times may vary. Skin Barrier Integrity (Rhodamine B) Ex vivo skin models have been treated topically with the L. plantarum strains before the application of the diesel particulate (i.e. 1650b). All skin samples have been incubated at 35° C., 5% CO2 and environmental humidity. At the end of the experimental phase the skin samples have been harvested stained with Rhodaminde B, cryo-fixed and cut at the cryostat for consequent image acquisition and analysis. The analysis of Rhodamine B fluorescence has been performed within two sections of the epidermis area for each skin model. Images have been analyzed by evaluating the fluorescence through Image-J application (NIH, USA).

[9] = tested on: 3D epidermis model system for dry skin; test: Barrier improving efficacy on SDS damaged 3D skin models for dry skin (TEM of intercellular lipid lamellae); type: cell-based; conditions: 0.5% in a skin care formulation, topical, after SDS treatment
Experimental: Barrier Improving Efficacy on SDS Damaged 3D Skin Models for Dry Skin
For this purpose an in vitro study was performed on a 3D epidermis model system for dry skin. […] Disturbance of the epidermal barrier was measured as loss of intercellular lipid lamellae. The skin repair performance was determined by transmission electron microscopy (TEM) after treatment with L. plantarum HEAL 19 formulated in a cosmetic emulsion or placebo emulsion and then further cultivated to observe reformation of intercellular lipid lamellae.

[10] = 0.1 and 0.05% tested, 24 h treatment, HaCaT
[11] = 0.05%, 24 h, gene arrays, induction defined as RQ-value >2

Compound: Lactobacillus plantarum HEAL 99 (DSM 15316) [L. plantarum HEAL 99]
- induction of AMP coding gene Peptidase inhibitor 3 (HaCaT keratinocytes [1]; [10]): induced concentration dependently
- induction of AMP coding gene Phospholipase A2 (HaCaT keratinocytes [1]; [10]): induced concentration dependently
- induction of AMP coding gene RNase 7 (HaCaT keratinocytes [1]; [10]): induced concentration dependently
- induction of AMP coding gene Secretory leukocyte peptidase inhibitor (HaCaT keratinocytes [1]; [10]): induced concentration dependently
- induction of AMP coding gene β-Defensin 3 (HaCaT keratinocytes [1]; [10]): induced concentration dependently
- IL-8 release reduced to, compared to not pre-treated IL-1alpha control (HaCaT keratinocytes [2]; 0.1 mg/mL): 12.6%
- hyaluronic acid release compared to the medium control [3]: 115%
- filaggrin (FLG) release in medium [4]: 150%

Compound: C[C@@H]1C[C@H]2[C@@H]3CCC4=CC(=O)C=C[C@]4(C)[C@@]3(F)[C@@H](O)C[C@]2(C)[C@@]1(O)C(=O)CO [dexamethasone, reference compound]
- IL-8 release reduced to, compared to not pre-treated IL-1alpha control (HaCaT keratinocytes [2]; 30 μM, positive control): 20.4%

Compound: Lactobacillus plantarum HEAL 19 (DSM 15313) [L. plantarum HEAL 19]
- induction of β-Defensin 3, calculated RQ-value (HaCaT keratinocytes [1]; 0.0125% L. plantarum HEAL 19, 24 h, HaCaT): 2.3
- gene expression of Calprotectin (HaCaT keratinocytes [1]; [11]): induced
- gene expression of Lactotransferrin (HaCaT keratinocytes [1]; [11]): Significantly induced
- gene expression of Peptidase inhibitor 3 (HaCaT keratinocytes [1]; [11]): Significantly induced
- gene expression of Psoriasin (HaCaT keratinocytes [1]; [11]): Significantly induced
- gene expression of RNase 7 (HaCaT keratinocytes [1]; [11]): Significantly induced
- gene expression of Secretory leukocyte peptidase inhibitor (HaCaT keratinocytes [1]; [11]): Significantly induced
- gene expression of β-Defensin 1 (HaCaT keratinocytes [1]; [11]): induced
- gene expression of β-Defensin 3 (HaCaT keratinocytes [1]; [11]): Significantly induced
- gene expression of β-Defensin 4 (HaCaT keratinocytes [1]; [11]): Significantly induced
- induction of β-Defensin 3, calculated RQ-value (HaCaT keratinocytes [1]; 0.1% L. plantarum HEAL 19, 24 h, HaCaT): 243.6
- IL-8 release reduced to, compared to not pre-treated IL-1alpha control (HaCaT keratinocytes [2]; 0.25 mg/mL): 5.1%
- IL-8 concentration in the medium reduced to, compared to only S. aureus stimulated control (HaCaT keratinocytes [5]): 31%
- IL-8 detection in cell culture medium reduced to, compared to placebo control [6]: 75%
- growth of S. aureus (optical density) [7]: growth inhibition effects
- cytokeratin 14 (CK14) production ([8]; topical treatment): increased
- involucrin production ([8]; topical treatment): increased
- filaggrin release/contents ex vivo [8]: concentration dependent induction
- rhodamine B penetration (skin barrier integrity) (ex vivo skin models): reduction of rhodamine B penetration
- repair performance (length of intercellular lipid lamellae) [9]: increased repair performance
- hyaluronic acid release compared to the medium control [3]: 145%
- filaggrin (FLG) release in medium [4]: 215%
